Tests used:
MDA-MB-468 cells = experiment: Cleaved caspase 3 apoptosis assay; format: cell-based, human; conditions: chaetocin 0, 400, 800 nM; compared with MDA-MB-231
Excerpt: (§1) FIGS. 1A-1K are a series of figures showing sensitivity of tumor initiating cell (TICs)-rich, chemoresistant breast cancer and clear cell renal cell carcinoma cell lines to chaetocin compared to non-cancerous epithelial or isogenic cancerous epithelial, TIC-deplete, chemosensitive breast cancer and clear cell renal cell carcinoma cell lines. […] The data presented in FIGS. 1A and 1B indicate that at lower doses especially chaetocin specifically induces apoptosis of mesenchymal, TIC-rich, chemotherapy-resistant breast cancer cell lines compared to the epithelial, non-TIC-rich and chemotherapy-responsive cell-line.
(§2) To determine whether constitutive heterochromatin proteins are similarly required for the development of […] in cancer, the efficacy of a heterochromatin inhibitor, which selectively represses the activities of two proteins critical for constitutive heterochromatin formation, namely suppressor of variegation 3-9 homolog 1 (Suv39H1) and suppressor of variegation 3-9 homolog 2 (Suv39H2), was tested in human cells, using 2-D, spheroid and tumorsphere assays. To determine the sensitivity of well-established mesenchymal and epithelial cancer cells to a heterochromatin inhibitor, chaetocin, the degree of apoptotic cell death was measured in two cancer cell lines, MDA-MB-231 and MDA-MB-468. […]

MDA-MB-231 cells = experiment: Cleaved caspase 3 apoptosis assay; format: cell-based, human; conditions: chaetocin 0, 100, 200 nM; compared with MDA-MB-468
Excerpt: as §1, §2

HMLE-TWIST cells [1] = experiment: CD44/CD24 FACS analysis after chaetocin pulse and washout; format: cell-based, human
Description: Cultured mesenchymal, TIC-rich HMLE-TWIST cells were treated with increasing concentrations of chaetocin for 2 days, washed and then incubated in chaetocin-free media for two days. CD44/CD24 FACS analyses were performed either immediately or two days after chaetocin removal.
CD44/CD24 FACS analyses either were performed either immediately or 6 days after chaetocin removal.
To determine whether a short pulse of the Suv39H1/H2 inhibitor, chaetocin, is sufficient to bring about an epigenetic change, cultured HMLE-TWIST cells (also referred to as ‘HMLE-TWIST TICs’ or ‘TICs’) were exposed to different doses of chaetocin for two days, followed by washout, and replacement with regular media. Cells were tracked for their phenotypic fate (e.g., CD44/CD24 marker expression) for another two or 6 days in chaetocin-free media. In this cell line, high CD44 and low CD24 expression indicate TIC cell populations. Cells that express CD24 are considered non-TICs. […] Next, to determine whether the epigenetic change persists for periods longer than two days, a separate experiment was performed in which HMLE-TWIST cells were treated with chaetocin for two days, followed by FACS analysis of CD24/CD44 expression either immediately after or 6 days after, as schematized in the top panel of FIG. 3M.

HMLE-TWIST cells [2] = conditions: 0.3 μM, 15 hours, versus untreated
Description: To determine whether the transcriptional changes associated with chaetocin treatment support this apparent change in cell state (reversal of mesenchymal fate), RNA-seq experiments were performed on cells treated for 15 hours with 0.3 μM of chaetocin after which total RNA was extracted and subjected to deep sequencing.

[3] = system: 786-0 and HMLE-Snail (E-Snail) cells versus WT7, HMLE, HK-2, NP-1 and BEAS-2B cells; experiment: Proliferation assay on normal and cancer cell lines; format: cell-based, human; conditions: 100 nM chaetocin for 1 day
Excerpt: Mesenchymal, TIC-rich, chemotherapy-resistant cell lines used in this experiment are the clear cell renal carcinoma cell line 786-0 and the human mammary epithelial (HMLE) cell line in which the zinc finger protein SNAI1 (SNAIL) is overexpressed, E-SNAIL. The isogenic epithelial, TIC-depleted, chemotherapy sensitive cell lines used as controls are the clear cell renal carcinoma cell line WT7 (modified 786-0 cells) and the human mammary epithelial (HMLE) cell with […].
To test if other mesenchymal, TIC-rich, chemotherapy resistant cell lines of different tissue origin (e.g. kidney) are also sensitive to chaetocin treatment, normal and cancerous breast (control) and renal cells were treated in culture with 100 nM chaetocin for 1 day, after which cell growth was assayed using a proliferation assay (FIG. 1C). The tested cells included a 786-0 clear cell renal cell carcinoma (ccRCC) cell line, which is defective in the Von Hippel-Lindau tumor suppressor (VHL), enriched in TIC, and difficult to eliminate by conventional chemotherapy in patients carrying this mutation. WT7 cell line is a modified 786-0 cell line in which VHL is re-introduced artificially, rendering them epithelial, TIC-depleted and susceptible to chemotherapy. […]

Suv39H1 and Suv39H2 = conditions: cited from earlier work
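Wherever Log2foldChange ALDH1A1 is given: transcript levels measured by RNA-seq of total RNA extracted from treated cells, given as log2 change relative to untreated cells.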
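Wherever Log2foldChange BIRC5 (survivin-1) is given: transcript levels measured by RNA-seq of total RNA extracted from treated cells, given as log2 change relative to untreated cells.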
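Wherever Log2foldChange CD24 is given: transcript levels measured by RNA-seq of total RNA extracted from treated cells, given as log2 change relative to untreated cells.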
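Wherever Log2foldChange CDH1 (E-cadherin) is given: transcript levels measured by RNA-seq of total RNA extracted from treated cells, given as log2 change relative to untreated cells.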

## CN1C(=O)[C@@]23C[C@]4([C@]56C[C@@]78SS[C@](CO)(C(=O)N7[C@H]5Nc5ccccc56)N(C)C8=O)c5ccccc5N[C@@H]4N2C(=O)[C@@]1(CO)SS3 [chaetocin]
MDA-MB-468 cells
  apoptosis (cleaved caspase 3) sensitivity: increased sensitivity to chaetocin as compared to MDA-MB-231 cells
MDA-MB-231 cells
  apoptosis (cleaved caspase 3) sensitivity: more sensitive to chaetocin compared to the non-TIC, MDA-MB-468 cells
HMLE-TWIST cells [1]; 0.1, 0.15, 0.2, 0.5 μM for two days, immediately after treatment
  CD44/CD24 phenotype (TIC to non-TIC): converts TICs into non-TICs in a dose dependent manner
HMLE-TWIST cells [1]; two or 6 days in chaetocin-free media
  persistence of TIC to non-TIC conversion: persist for up to six days after chaetocin removal
HMLE-TWIST cells [2]
  Log2foldChange ALDH1A1: −2.01
  Log2foldChange BIRC5 (survivin-1): 0.491
  Log2foldChange CD24: −0.912
  Log2foldChange CDH1 (E-cadherin): 4.25
  Log2foldChange CLDN2: 6.00
  Log2foldChange CLDN4: 3.68
  Log2foldChange CLDN6: 7.30
  Log2foldChange CLDN9: 4.59
  Log2foldChange CLDN16: 2.77
  Log2foldChange CLDN23: 1.18
  Log2foldChange COL2A1: 4.34
  Log2foldChange CRB1: 9.40
  Log2foldChange CST6: 2.12
  Log2foldChange Errb2: −0.829
  Log2foldChange GJA1: −0.627
  Log2foldChange GLI-2: −0.941
  Log2foldChange KRT7: 1.59
  Log2foldChange KRT8: 1.30
  Log2foldChange KRT18: 1.95
  Log2foldChange KRT19: 4.46
  Log2foldChange KRT34: 5.49
  Log2foldChange KRT80: 1.24
  Log2foldChange KRT81: 1.47
  Log2foldChange KRT86: 3.10
  Log2foldChange LAMB1: −1.05
  Log2foldChange MMP14: −1.14
  Log2foldChange NRF-2: −0.862
  Log2foldChange Nanog: −2.21
  Log2foldChange O ct4: −1.76
  Log2foldChange PTEN: −0.780
  Log2foldChange SNAI2: −0.623
  Log2foldChange TWIST1: −0.549
  Log2foldChange WISP1: −1.06
  Log2foldChange ZEB1: −0.666
[3]
  inhibition of proliferation: selectively inhibits the growth of mesenchymal, TIC-rich, chemotherapy resistant breast and kidney cancer cell lines
Suv39H1 and Suv39H2
  inhibitor specificity: specific inhibitor of Suv39H1 and Suv39H2 heterochromatin proteins
